According to patent US20230114728A1 (Venatorx Pharmaceuticals, Inc., priority 2019, published 2023):

Tests used:
[1] = Bocillin-FL fluorescence polarization competition binding assay, A. baumannii PBP3; conditions: fluorescence polarization competition binding assay using Bocillin-FL; column 3; read-out: 4. baumannii PBP1a Potency
In short: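 A. baumannii PBP2 (2.5 μM) and PBP3 (0.2 μM) were run in 25 mM Tris pH 8.0 buffer with Tween 20; E. coli PBP3 (1.5 μM) and N. gonorrhoeae PBP2 ([…]) in 50 mM Hepes pH 8.0 buffer.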

N. gonorrhoeae PBP2 = target: T1, N. gonorrhoeae PBP2 (Neisseria gonorrhoeae, UniProt P08149); test: Bocillin-FL fluorescence polarization competition binding assay, N. gonorrhoeae PBP2; conditions: fluorescence polarization competition binding assay using Bocillin-FL; read-out: N. gonorrhoeae PBP2 Potency
T1 construct: made in house
T1 sequence (P08149 whole entry): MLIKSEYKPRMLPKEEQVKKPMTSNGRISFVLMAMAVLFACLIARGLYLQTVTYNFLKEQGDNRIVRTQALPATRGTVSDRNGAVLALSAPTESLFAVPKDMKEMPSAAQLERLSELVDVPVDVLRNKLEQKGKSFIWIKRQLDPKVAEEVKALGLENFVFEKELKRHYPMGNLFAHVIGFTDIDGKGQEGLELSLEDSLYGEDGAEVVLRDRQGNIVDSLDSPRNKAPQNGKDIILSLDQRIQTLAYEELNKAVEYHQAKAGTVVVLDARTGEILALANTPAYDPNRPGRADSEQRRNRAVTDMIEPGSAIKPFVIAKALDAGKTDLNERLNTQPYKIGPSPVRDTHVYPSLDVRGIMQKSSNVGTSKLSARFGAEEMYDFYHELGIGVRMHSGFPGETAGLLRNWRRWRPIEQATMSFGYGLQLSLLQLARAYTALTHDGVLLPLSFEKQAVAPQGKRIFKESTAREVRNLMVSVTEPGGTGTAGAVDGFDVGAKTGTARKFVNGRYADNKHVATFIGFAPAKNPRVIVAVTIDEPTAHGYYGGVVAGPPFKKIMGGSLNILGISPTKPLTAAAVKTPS
Excerpt: (§1) Example I: Experimental Method for Penicillin-Binding Protein Binding Assays with Bocillin-FL Via Fluorescence Polarization
(§2) To determine the ability of boronic acid-based test PBP inhibitors to bind Penicillin Binding Proteins (PBPs), Bocillin-FL (fluorescently-labeled penicillin V; ThermoFisher Scientific) was used in a fluorescence polarization (FP) competition binding assay to assess inhibitor binding to PBP2, PBP3 or PBP4 from Escherichia coli (K12), PBP3 from Pseudomonas aeruginosa (PA01), PBP1a, PBP2 and PBP3 from Acinetobacter baumannii (ATCC 19606), and PBP2 from Neiserria gonorrheae (FA19). PBPs were cloned and purified as described previously (E. coli PBPs, King, D. T, et al., ACS Infectious Diseases 2015, 1, 175-184; P. aeruginosa PBP3, Han et. al., PNAS 2010, 107 (51), 22002-22007; A. baumannii PBPs, Penwell et. al., Antimicrob. Agents Chemother. 2015, 59 (3), 1680-1689; N. gonorrhoeae PBP2, Singh et. al., J Biol. Chem. 2019, 294 (38), 14020-14032). To establish assay conditions for competition binding, enzyme titration/saturation binding experiments were initially performed. Bocillin-FL was prepared at 0.2 μM in a buffer comprised of 50 mM Hepes (pH 8.0), 300 mM NaCl and 5% (v/v) glycerol for reactions with E. coli, P. aeruginosa and N. gonorrhoeae PBPs, and 25 mM Tris (pH 8.0), 200 mM NaCl and 10% (v/v) glycerol and 0.005% (v/v) Tween 20 for reactions with A. baumannii PBPs. Saturation binding was performed by mixing 40 μl of PBP solutions ranging in concentrations from 0-24 μM with 40 μl of the 0.2 μM Bocillin-FL solution, in individual wells of a black 384-well microplate. FP was measured immediately upon mixing (Excitation, 490 nm; Emission, 520 nm; g-factor, 0.96), using a Cytation3 (BioTek) microplate reader and measured continuously for up to 120 minutes. […] The competition binding assay (80 μl final volume) was validated using beta-lactams and PBPs at final concentrations of: 1.5 μM, E. coli PBP3; 0.75 μM, P. aeruginosa PBP3; 1 μM A. baumannii PBP1a; 2.5 μM A. baumannii PBP2; 0.2 μM A. baumannii PBP3; and […] N. gonorrhoeae PBP2. Bocillin-FL was at 0.1 μM (0.05 μM with A. baumannii PBP1a) and beta-lactam concentrations ranged from 0-1000 μM. […] Bocillin-FL was added and the FP immediately measured for up to 60 minutes (90 minutes for E. coli PBP2). […] The beta-lactam potency was reported as the concentration of beta-lactam required to reduce the amount of PBP bound-Bocillin-FL by 50% (EC50). […] Binding assays for boronic acid PBP inhibitors were performed in an identical fashion for the respective PBPs

A. baumannii PBP2 = target: T2, A. baumannii PBP2 (Acinetobacter baumannii, UniProt D0C8Z9); test: Bocillin-FL fluorescence polarization competition binding assay, A. baumannii PBP2; conditions: fluorescence polarization competition binding assay using Bocillin-FL; read-out: A. baumannii PBP2 Potency
T2 construct: made in house
T2 sequence (D0C8Z9 1-672): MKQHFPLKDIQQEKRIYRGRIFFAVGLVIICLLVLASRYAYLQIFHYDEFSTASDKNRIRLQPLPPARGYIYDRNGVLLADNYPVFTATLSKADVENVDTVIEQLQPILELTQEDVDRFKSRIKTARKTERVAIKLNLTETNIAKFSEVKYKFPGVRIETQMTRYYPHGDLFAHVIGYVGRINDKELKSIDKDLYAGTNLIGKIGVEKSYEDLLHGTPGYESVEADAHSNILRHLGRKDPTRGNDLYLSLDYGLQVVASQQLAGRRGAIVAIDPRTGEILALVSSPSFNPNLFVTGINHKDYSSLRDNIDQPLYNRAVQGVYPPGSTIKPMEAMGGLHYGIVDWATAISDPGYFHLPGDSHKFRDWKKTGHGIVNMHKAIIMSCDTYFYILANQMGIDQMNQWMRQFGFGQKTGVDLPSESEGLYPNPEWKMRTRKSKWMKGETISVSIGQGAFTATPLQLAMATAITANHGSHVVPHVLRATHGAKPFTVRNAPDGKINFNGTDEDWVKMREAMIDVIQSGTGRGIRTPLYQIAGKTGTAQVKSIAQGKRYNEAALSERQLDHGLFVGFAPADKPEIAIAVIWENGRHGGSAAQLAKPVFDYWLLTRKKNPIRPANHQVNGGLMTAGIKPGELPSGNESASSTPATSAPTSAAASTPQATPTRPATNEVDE
Excerpt: as §1, §2

SMILES	EC50 [1]	EC50 (N. gonorrhoeae PBP2)	EC50 (A. baumannii PBP2)
NCCN1CCN(C(=O)N[C@H](C(=O)N[C@H]2Cc3cccc(C(=O)O)c3OB2O)c2c(F)cc(O)cc2F)C(=O)C1=O (single isomer, unassigned) [Example 110]	> 100 µM	–	–
CCN1CCN(C(=O)N[C@H](C(=O)N[C@H]2Cc3cccc(C(=O)O)c3OB2O)c2ccc(C(=O)O)cc2)C(=O)C1=O (single isomer, unassigned) [Example 123]	–	< 10 µM	–
CCN1CCN(C(=O)N[C@@H](C(=O)N[C@H]2Cc3cccc(C(=O)O)c3OB2O)c2ccc(C(=O)O)cc2)C(=O)C1=O (single isomer, unassigned) [Example 124]	< 10 µM	< 10 µM	–
CCN1CCN(C(=O)N[C@H](C(=O)N[C@H]2Cc3ccc(F)c(C(=O)O)c3OB2O)c2c(F)cc(O)c(O)c2Cl)C(=O)C1=O (single isomer, unassigned) [Example 125]	> 100 µM	–	–
NC1(CN2CCN(C(=O)N[C@@H](C(=O)N[C@H]3Cc4ccc(F)c(C(=O)O)c4OB3O)c3cc(F)c(O)c(O)c3Cl)C(=O)C2=O)CC1 (single isomer, unassigned) [Example 133]	< 10 µM	–	–
NC1(CN2CCN(C(=O)N[C@@H](C(=O)N[C@H]3Cc4ccc(F)c(C(=O)O)c4OB3O)c3c(F)cc(O)c(O)c3Cl)C(=O)C2=O)CC1 (single isomer, unassigned) [Example 134]	< 10 µM	–	30 to 100 µM
CCN1CCN(C(=O)N[C@H](C(=O)N[C@H]2Cc3cccc(C(=O)O)c3OB2O)c2ccc(C(=O)O)c(F)c2F)C(=O)C1=O (single isomer, unassigned) [Example 139]	–	< 10 µM	–
CCN1CCN(C(=O)N[C@@H](C(=O)N[C@H]2Cc3cccc(C(=O)O)c3OB2O)c2ccc(C(=O)O)c(F)c2F)C(=O)C1=O (single isomer, unassigned) [Example 140]	–	< 10 µM	–
CCN1CCN(C(=O)N[C@@H](C(=O)N[C@H]2Cc3cccc(C(=O)O)c3OB2O)c2ccc(C(=O)O)c(F)c2)C(=O)C1=O (single isomer, unassigned) [Example 146]	–	< 10 µM	–
CCN1CCN(C(=O)N[C@H](C(=O)N[C@H]2Cc3cccc(C(=O)O)c3OB2O)c2ccc(C(=O)O)c(F)c2)C(=O)C1=O (single isomer, unassigned) [Example 147]	–	< 10 µM	–
CCN1CCN(C(=O)N[C@@H](C(=O)N[C@H]2Cc3cccc(C(=O)O)c3OB2O)c2cc(F)c(C(=O)O)cc2Cl)C(=O)C1=O (single isomer, unassigned) [Example 148]	–	< 10 µM	–
CCN1CCN(C(=O)N[C@H](C(=O)N[C@H]2Cc3cccc(C(=O)O)c3OB2O)c2cc(F)c(C(=O)O)cc2Cl)C(=O)C1=O (single isomer, unassigned) [Example 149]	–	30 to 100 µM	–
CCN1CCN(C(=O)N[C@@H](C(=O)N[C@H]2Cc3cccc(C(=O)O)c3OB2O)c2ccc(C(=O)O)cc2Cl)C(=O)C1=O (single isomer, unassigned) [Example 151]	–	< 10 µM	–
CCN1CCN(C(=O)N[C@H](C(=O)N[C@H]2Cc3cccc(C(=O)O)c3OB2O)c2ccc(C(=O)O)cc2Cl)C(=O)C1=O (single isomer, unassigned) [Example 152]	–	10 to 30 µM	–
CCN1CCN(C(=O)N[C@@H](C(=O)N[C@H]2Cc3cccc(C(=O)O)c3OB2O)c2ccc(C(=O)O)c(Cl)c2)C(=O)C1=O (single isomer, unassigned) [Example 154]	–	< 10 µM	–
CCN1CCN(C(=O)N[C@H](C(=O)N[C@H]2Cc3cccc(C(=O)O)c3OB2O)c2ccc(C(=O)O)c(Cl)c2)C(=O)C1=O (single isomer, unassigned) [Example 155]	–	< 10 µM	–
NCCN1CCN(C(=O)N[C@@H](C(=O)N[C@H]2Cc3cccc(C(=O)O)c3OB2O)c2cc(F)c(O)c(F)c2)C(=O)C1=O (single isomer, unassigned) [Example 159]	–	< 10 µM	–
NCCN1CCN(C(=O)N[C@@H](C(=O)N[C@H]2Cc3cccc(C(=O)O)c3OB2O)c2cc(F)c(O)c(F)c2F)C(=O)C1=O (single isomer, unassigned) [Example 168]	–	< 10 µM	–
CCN1CCN(C(=O)NC(C(=O)N[C@H]2Cc3cccc(C(=O)O)c3OB2O)c2cccc(C(=O)O)c2)C(=O)C1=O (stereo partly drawn) [Example 113, (3R)-3-(2-(3-carboxyphenyl)-2-(4-ethyl-2,3-dioxopiperazine-1-carboxamido)acetamido)-2-hydroxy-3,4-dihydro-2H-benzo[e][1,2]oxaborinine-8-carboxylic acid]	–	< 10 µM	–
NCCN1CCN(C(=O)NC(C(=O)N[C@H]2Cc3cccc(C(=O)O)c3OB2O)c2c(F)c(F)c(O)c(F)c2F)C(=O)C1=O (stereo partly drawn) [Example 174, (3R)-3-(2-(4-(2-aminoethyl)-2,3-dioxopiperazine-1-carboxamido)-2-(2,3,5,6-tetrafluoro-4-hydroxyphenyl)acetamido)-2-hydroxy-3,4-dihydro-2H-benzo[e][1,2]oxaborinine-8-carboxylic acid]	–	< 10 µM	–
CCN1CCN(C(=O)NC(C(=O)N[C@H]2Cc3cccc(C(=O)O)c3OB2O)c2c(F)c(F)c(O)c(F)c2F)C(=O)C1=O (stereo partly drawn) [Example 175, (3R)-3-(2-(4-ethyl-2,3-dioxopiperazine-1-carboxamido)-2-(2,3,5,6-tetrafluoro-4-hydroxyphenyl)acetamido)-2-hydroxy-3,4-dihydro-2H-benzo[e][1,2]oxaborinine-8-carboxylic acid]	–	< 10 µM	–
CCN1CCN(C(=O)NC(C(=O)N[C@H]2Cc3cccc(C(=O)O)c3OB2O)c2c(F)cc(NS(N)(=O)=O)cc2F)C(=O)C1=O (stereo partly drawn) [Example 176, (3R)-3-(2-(2,6-difluoro-4-(sulfamoylamino)phenyl)-2-(4-ethyl-2,3-dioxopiperazine-1-carboxamido)acetamido)-2-hydroxy-3,4-dihydro-2H-benzo[e][1,2]oxaborinine-8-carboxylic acid]	–	< 10 µM	–
NCCN1CCN(C(=O)NC(C(=O)N[C@H]2Cc3cccc(C(=O)O)c3OB2O)c2c(F)cc(NS(N)(=O)=O)cc2F)C(=O)C1=O (stereo partly drawn) [Example 177, (3R)-3-(2-(4-(2-aminoethyl)-2,3-dioxopiperazine-1-carboxamido)-2-(2,6-difluoro-4-(sulfamoylamino)phenyl)acetamido)-2-hydroxy-3,4-dihydro-2H-benzo[e][1,2]oxaborinine-8-carboxylic acid]	–	10 to 30 µM	–
NCCCN1CCN(C(=O)NC(C(=O)N[C@H]2Cc3ccc(F)c(C(=O)O)c3OB2O)c2c(F)cc(O)cc2F)C(=O)C1=O (stereo partly drawn) [Example 178, (3R)-3-(2-(4-(3-aminopropyl)-2,3-dioxopiperazine-1-carboxamido)-2-(2,6-difluoro-4-hydroxyphenyl)acetamido)-7-fluoro-2-hydroxy-3,4-dihydro-2H-benzo[e][1,2]oxaborinine-8-carboxylic acid]	–	> 100 µM	–
